Results taken from PMC11519908, “Luminescent Ln(III)-Metallopeptide Sensors for Monitoring Pseudomonas aeruginosa Elastase B Activity in Complex Biological Media” (ACS Sensors, 2024).

Assays:
[1] = test system: supernatant from the P. aeruginosa strain producing LasB; assay: Luminescence of probe with LasB-secreting P. aeruginosa supernatant with and without EDTA; format: biochemical, Pseudomonas aeruginosa
[2] = Luminescence of probe in the presence of glutathione; format: physicochemical; settings: 5 µM probe, 100 µM GSH, HEPES buffer pH 8, 37 °C, time-gated emission
[3] = Luminescence of probe in the presence of H2O2; format: physicochemical; settings: 5 µM probe, 0.5 mM H2O2, HEPES buffer pH 8, 37 °C, time-gated emission
[4] = Luminescence of probe in the presence of pyocyanin and P. aeruginosa supernatant; format: physicochemical
[5] = test system: supernatant from P. aeruginosa strain producing LasB; format: biochemical, Pseudomonas aeruginosa; settings: P1[Tb]: 0.5 mM probe, 50 mM CaCl2, HEPES buffer, 9 µL supernatant, RT, 1 h before injection
LasB = LasB (Pseudomonas aeruginosa, UniProt P14756); settings: 1, 5, 7.5, 10 µM probe, 1 mM CaCl2, 60.6 nM (2 µg/mL) LasB, 10 mM HEPES pH 8.0, 37 °C, time-gated emission every 15 min for 10 h, fit to hit-and-run model (Dynafit)
E. coli supernatant = settings: 10 µM probe, 1 mM CaCl2, HEPES buffer, 10 µL E. coli supernatant, 20 h at 37 °C, time-gated emission

Sequence of LasB (P14756 198-498): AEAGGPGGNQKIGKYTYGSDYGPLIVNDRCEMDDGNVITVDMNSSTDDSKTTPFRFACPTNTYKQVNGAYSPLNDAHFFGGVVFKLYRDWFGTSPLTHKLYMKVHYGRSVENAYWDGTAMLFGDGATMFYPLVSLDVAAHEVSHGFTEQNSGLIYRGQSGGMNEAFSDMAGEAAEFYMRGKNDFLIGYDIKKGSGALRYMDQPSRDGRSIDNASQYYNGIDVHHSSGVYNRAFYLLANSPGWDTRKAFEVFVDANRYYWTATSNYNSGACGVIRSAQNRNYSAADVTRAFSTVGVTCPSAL

EGLAEW [P1[Tb]]
reduction of luminescence 3 h after supernatant addition, in the absence of EDTA [1]: approximately 90% | reduction of luminescence 3 h after supernatant addition, with EDTA [1]: approximately 30% | change of luminescence 20 h after addition of glutathione [2]: remained constant | change of luminescence 20 h after addition of H2O2 [3]: remained constant | probe activity toward P. aeruginosa supernatant in the presence of pyocyanin [4]: remained active | reduction of emission band intensity on incubation with pyocyanin ([4]; 5 µM probe, 1 µM pyocyanin, HEPES buffer, 37 °C, time-gated emission): approximately 20% | cleavage of probe by wild-type P. aeruginosa supernatant (HPLC-MS) [5]: cleaved at the G-L bond | apparent rate constant ksub (equivalent to specificity constant kcat/Km) (LasB): 0.438 ± 0.007 μM^–1min^–1 | change of luminescence with E. coli supernatant (E. coli supernatant): no changes in the luminescence | luminescence response to P. aeruginosa supernatant added after incubation in 1.2% FBS: gradual reduction in the luminescence emission | time of stable luminescence in 1.2% FBS (10 µM probe, 1.2% v/v fetal bovine serum in HEPES buffer, 37 °C, time-gated emission every hour for 12 h): at least 12 h
